Assay results as given in patent US9034886B2, “4-aminoquinazoline derivatives and uses thereof” (Shanghai Institute of Pharmaceutical Industry, priority 2011, dated 2015).
Where two headings read alike, the source gives them in different places.

How the values were obtained:
HDACs = assay: In vitro inhibition of HDACs (HDAC Inhibitor Drug Screening Kit, Biovision K340-100); format: biochemical
Protocol: The in vitro inhibitory activities of the compounds towards HDACs were tested according to the instructions in the HDAC Inhibitor Drug Screening Kit (Biovision/Catalog #K340-100).
(1) The compounds to be tested were each individually prepared as 2 mM, 200 μM and 40 μM solutions and their inhibitory activities at these concentrations were tested.

HDAC1 = HDAC1 (Homo sapiens (Human), UniProt Q13547); assay: In vitro inhibition of subtype HDAC1 (HDAC1 Inhibitor Drug Screening Kit, Biovision); format: biochemical; details: for inhibition at 1 µM / inhibition at 10 µM: read-out: % Inhibition towards HDAC1
Protocol: The in vitro inhibitory activities of the compounds towards the subtype HDAC1 were tested according to the instructions in the HDAC1 Inhibitor Drug Screening Kit (Biovision).
(1) The compounds to be tested were each individually prepared as 10 μM and 1 μM solutions and their inhibitory activities at these concentrations were tested.
Each dilution sample was placed in two wells and the enzyme inhibition IC50 of the compound was tested.

[1] = tested on: Hut78 T lymphocytic leukemia cells; assay: In vitro anti-proliferative effect, CCK-8 method, Hut78; format: cell-based; details: Homo sapiens, HuT78; for inhibition at 10 µM / inhibition at 100 µM: read-out: Hut-78 (inhibition %)
Outline: (§1)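 K562 and Hut78 cells exposed to compounds at 100 μM and 10 μM. Percent inhibition of proliferation determined by CCK-8 read-out.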

[2] = tested on: PANC-1 human pancreatic cancer cells; assay: In vitro anti-proliferative effect, CCK-8 method, PANC-1; format: cell-based; details: Homo sapiens, PANC-1
Outline: (§2)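 Cells treated with compounds at 100 μM and 10 μM. Percent inhibition of proliferation measured by CCK-8.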

[3] = tested on: Jurkat E6-1 human T-cell lymphoma; assay: In vitro anti-proliferative effect, CCK-8 method, Jurkat E6-1; format: cell-based; details: Homo sapiens, Jurkat E6.1
Outline: as §2

[4] = tested on: K562 human chronic myelogenous leukemia cells; assay: In vitro anti-proliferative effect, CCK-8 method, K562; format: cell-based; details: Homo sapiens, K562
Outline: as §1

[5] = tested on: A549 human lung cancer cells; assay: In vitro anti-proliferative effect, CCK-8 method, A549; format: cell-based; details: Homo sapiens, A549
Outline: as §2

[6] = tested on: MDA-MB-435s human breast cancer cells; assay: In vitro anti-proliferative effect, CCK-8 method, MDA-MB-435s; format: cell-based; details: Homo sapiens, MDA-MB-435S
Outline: as §2

[7] = tested on: Hep3B2.1-7 human liver cancer cells; assay: In vitro anti-proliferative effect, CCK-8 method, Hep3B; format: cell-based; details: Homo sapiens; for inhibition at 10 µM / inhibition at 100 µM: Hep3B cell strain, CCK-8 method; for inhibition at 10 µM: compound at 10 μM; for inhibition at 100 µM: compound at 100 μM
Outline: as §2

[8] = tested on: PC-3 human prostate cancer; assay: In vitro anti-proliferative effect, CCK-8 method, PC-3; format: cell-based; details: Homo sapiens, PC-3 cell strain, CCK-8 method; for inhibition at 10 µM: compound at 10 μM; for inhibition at 100 µM: compound at 100 μM
Outline: as §2

[9] = tested on: Colo320 human colorectal cancer cell lines; assay: In vitro anti-proliferative effect, CCK-8 method, Colo320; format: cell-based; details: Homo sapiens, COLO 320, Colo320 cell strain, CCK-8 method; for inhibition at 10 µM: compound at 10 μM; for inhibition at 100 µM: compound at 100 μM
Outline: as §2

[10] = Maximum tolerance dose through intragastrical administration; format: in vivo; details: mice, administrated intragastrically
Protocol: Forty ICR mice, half female and half male, weighing […] were divided into four groups, 10 mice in each group. After the mice were fasted for 6 h, the compound to be tested was administrated intragastrically to each group at a volume of 0.3 ml/10 g by using a sterile plastic syringe. General physical signs and the deaths of the animals were record at 1, 2 and 4 h after the administration. The animals were then observed continuously for 14 days and their weights, physical signs and deaths were observed and recorded every day. Dead animals were dissected to see if there was any visible pathological change in the animal's viscera and pathological examination was performed on suspicious tissues and organs. A part of the experimental results is as follows.

hERG potassium channel = hERG potassium channel (Homo sapiens (Human), UniProt Q12809); assay: Effects on hERG potassium channel; format: cell-based
[11] = Preliminary pharmacokinetics; details: in vivo, rat
human A549 tumors = assay: Human A549 tumors transplanted in nude mice; format: in vivo; details: 50 mg/kg

HDAC1, sequence (Q13547 whole entry): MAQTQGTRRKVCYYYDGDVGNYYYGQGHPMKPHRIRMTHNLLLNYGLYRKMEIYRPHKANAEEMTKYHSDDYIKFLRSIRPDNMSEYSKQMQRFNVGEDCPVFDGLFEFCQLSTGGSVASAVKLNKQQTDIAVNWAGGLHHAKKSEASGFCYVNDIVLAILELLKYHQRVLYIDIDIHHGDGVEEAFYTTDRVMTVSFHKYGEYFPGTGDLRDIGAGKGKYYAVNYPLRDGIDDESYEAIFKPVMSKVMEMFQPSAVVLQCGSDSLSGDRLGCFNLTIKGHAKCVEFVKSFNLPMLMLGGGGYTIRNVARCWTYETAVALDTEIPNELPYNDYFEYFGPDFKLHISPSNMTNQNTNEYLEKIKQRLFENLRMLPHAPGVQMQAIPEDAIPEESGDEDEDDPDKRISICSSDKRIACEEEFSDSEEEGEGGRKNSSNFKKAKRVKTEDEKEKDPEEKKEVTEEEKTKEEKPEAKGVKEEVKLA
hERG potassium channel, sequence (Q12809 whole entry): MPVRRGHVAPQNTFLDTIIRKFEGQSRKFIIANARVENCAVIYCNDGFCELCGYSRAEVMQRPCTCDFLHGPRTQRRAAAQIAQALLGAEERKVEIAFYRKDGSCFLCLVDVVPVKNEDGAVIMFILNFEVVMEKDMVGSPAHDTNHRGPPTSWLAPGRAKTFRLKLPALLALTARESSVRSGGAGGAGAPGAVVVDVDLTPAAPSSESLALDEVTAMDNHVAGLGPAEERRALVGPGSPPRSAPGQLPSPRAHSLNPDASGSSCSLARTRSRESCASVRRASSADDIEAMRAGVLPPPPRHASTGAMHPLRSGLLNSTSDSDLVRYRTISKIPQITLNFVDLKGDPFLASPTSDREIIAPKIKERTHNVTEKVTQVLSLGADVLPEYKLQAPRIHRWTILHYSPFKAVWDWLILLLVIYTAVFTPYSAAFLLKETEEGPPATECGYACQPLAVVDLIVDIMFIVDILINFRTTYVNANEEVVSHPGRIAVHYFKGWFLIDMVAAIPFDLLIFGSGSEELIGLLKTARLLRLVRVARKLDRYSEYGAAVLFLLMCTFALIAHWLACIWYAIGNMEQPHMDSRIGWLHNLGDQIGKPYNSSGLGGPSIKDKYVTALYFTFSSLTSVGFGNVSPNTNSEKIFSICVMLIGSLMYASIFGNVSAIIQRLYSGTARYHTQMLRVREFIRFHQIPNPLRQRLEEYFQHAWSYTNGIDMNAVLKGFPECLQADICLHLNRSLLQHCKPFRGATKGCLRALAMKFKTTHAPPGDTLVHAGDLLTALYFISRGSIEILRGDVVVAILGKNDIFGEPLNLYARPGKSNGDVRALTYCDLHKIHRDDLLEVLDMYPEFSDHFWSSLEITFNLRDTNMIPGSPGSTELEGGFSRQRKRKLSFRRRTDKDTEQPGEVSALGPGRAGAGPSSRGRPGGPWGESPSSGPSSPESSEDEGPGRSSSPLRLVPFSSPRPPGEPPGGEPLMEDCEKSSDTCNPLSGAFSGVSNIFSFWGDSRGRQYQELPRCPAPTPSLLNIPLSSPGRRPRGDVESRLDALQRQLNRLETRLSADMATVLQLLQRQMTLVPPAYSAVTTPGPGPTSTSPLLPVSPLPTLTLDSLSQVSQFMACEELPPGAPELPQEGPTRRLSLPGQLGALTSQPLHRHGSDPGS

For `COc1cc2ncnc(Nc3ccc(C(=O)Nc4cc(-c5ccco5)ccc4N)cc3)c2cc1OC` [Compound V-25, N-[2-amino-5-(2-furyl)phenyl]-4-(6,7-dimethoxyquinazoline-4-amino)benzamide], the “Inhibition percentage (%) towards HDACs” value (HDACs; 40 μM) was 20.5%, the “Inhibition percentage (%) towards HDACs” value (HDACs; 200 μM) was 55.2% and the “Inhibition percentage (%) towards HDACs” value (HDACs; 2 mM) was 72.8%. It also gave an inhibition at 1 µM (HDAC1) of 24.2%, an inhibition at 10 µM (HDAC1) of 53.8% and an inhibition at 10 µM [1] of 18.1%. It also gave an inhibition at 100 µM [1] of 60%, an inhibition at 10 µM [2] of 20.8% and an inhibition at 100 µM [2] of 39.5%. For the same compound, the inhibition at 10 µM [3] was 12.5%, the inhibition at 100 µM [3] was 83.3% and the inhibition at 10 µM [4] was 34.1%. For the same compound, the inhibition at 100 µM [4] was 64.8%, the inhibition at 10 µM [5] was 2.4% and the inhibition at 100 µM [5] was 12%. It also gave an inhibition at 10 µM [6] of 30.8%, an inhibition at 100 µM [6] of 61.2% and an inhibition at 10 µM [7] of 11.3%. The inhibition at 100 µM [7] was 40.6%, the inhibition at 10 µM [8] was -9.4% and the inhibition at 100 µM [8] was 22.1%. The inhibition at 10 µM [9] was 7.9%, the inhibition at 100 µM [9] was 14.1% and the maximum tolerance dose [10] was “over 5000 mg/kg”.

In the case of `Nc1ccccc1NC(=O)c1ccc(CNc2ncnc3ccccc23)cc1` [Compound V-27, N-(2-aminophenyl)-4-[(quinazoline-4-amino)methyl]benzamide], the IC50 (HDACs) is reported as 1310 nM, the “inhibitory activity according to in vitro IC50 value against HDACs compared with MS-275” value (HDACs) is reported as “better inhibitory activities than MS-275” and the “Inhibition percentage (%) towards HDACs” value (HDACs; 40 μM) is reported as 73.2%. For the same compound, the “Inhibition percentage (%) towards HDACs” value (HDACs; 200 μM) was 82.6%, the “Inhibition percentage (%) towards HDACs” value (HDACs; 2 mM) was 91.9% and the “inhibitory activity on HDACs compared with MS-275” value (HDACs; concentrations of 2 mM, 200 μM, and 40 μM) was “significantly stronger inhibitory activities than MS-275”. The IC50 (HDAC1) was 212 nM, the inhibition at 1 µM (HDAC1) was 58.3% and the inhibition at 10 µM (HDAC1) was 83%. The “inhibitory activity against HDAC1 compared with MS-275” value (HDAC1; both concentrations 10 μM and 1 μM) was “superior to that of MS-275”, the IC50 [1] was 356 nM and the inhibition at 10 µM [1] was 69.2%. The inhibition at 100 µM [1] was 89.3%, the inhibition at 10 µM [2] was 44.4% and the inhibition at 100 µM [2] was 69.5%. The IC50 [3] was 458 nM, the inhibition at 10 µM [3] was 31.6% and the inhibition at 100 µM [3] was 87.6%. The IC50 [4] was 437 nM, the inhibition at 10 µM [4] was 45% and the inhibition at 100 µM [4] was 75%. It also gave an IC50 [5] of 3140 nM, an inhibition at 10 µM [5] of 82.8% and an inhibition at 100 µM [5] of 97.7%. The inhibition at 10 µM [6] was 28.5%, the inhibition at 100 µM [6] was 76.3% and the IC50 ([7]; Hep3B) was 1520 nM. It also gave an inhibition at 10 µM [7] of -12.3%, an inhibition at 100 µM [7] of 68.3% and an inhibition at 10 µM [8] of 43.8%. It also gave an inhibition at 100 µM [8] of 59.9%, an inhibition at 10 µM [9] of 60% and an inhibition at 100 µM [9] of 82.3%. For the same compound, the maximum tolerance dose [10] was “over 2000 mg/kg”, the inhibition at 10 µM (hERG potassium channel; human, hERG potassium current, 10 μM, read-out: Maximum inhibition percentage at 10 μM (%)) was 29.9 ± 6.7% and the IC50 (hERG potassium channel; read-out: Half inhibition concentration for the effect on hERG potassium current, IC50) was > 10000 nM. The half-life ([11]; iv, 2 mg/kg, i.v., read-out: Intravenous half-life (converted)) was 0.95 h, the bioavailability ([11]; oral) was 28.6% and the half-life ([11]; oral, read-out: Oral half-life (converted)) was 3.37 h. The “antitumor effect on nude mice xenograft model A549” value (human A549 tumors) was “significantly inhibit the growth of tumor”, the “mortality and weight loss in nude mice” value (human A549 tumors) was “no mortality and significant weight loss” and the “tumor inhibition %, A549 (lung cancer)” value (human A549 tumors; nude mice) was 61.83%. For the same compound, the “deaths, A549 model” value (human A549 tumors; nude mice, 8 mice in each group) was “no death”.

In the case of `Nc1ccc(F)cc1NC(=O)c1ccc(CNc2ncnc3ccccc23)cc1` [Compound V-29, N-(2-amino-5-fluorophenyl)-4-[(quinazoline-4-amino)methyl]benzamide], the “Inhibition percentage (%) towards HDACs” value (HDACs; 40 μM) is reported as 8.6%, the “Inhibition percentage (%) towards HDACs” value (HDACs; 200 μM) is reported as 31.0% and the “Inhibition percentage (%) towards HDACs” value (HDACs; 2 mM) is reported as 37.8%. It also gave an IC50 (HDAC1) of 517 nM, an inhibition at 1 µM (HDAC1) of 41.4% and an inhibition at 10 µM (HDAC1) of 63.2%. The inhibition at 10 µM [1] was 79.4%, the inhibition at 100 µM [1] was 94% and the inhibition at 10 µM [2] was 0.9%. For the same compound, the inhibition at 100 µM [2] was 18.4%, the inhibition at 10 µM [3] was 51.5% and the inhibition at 100 µM [3] was 96.2%. The inhibition at 10 µM [4] was 57.4%, the inhibition at 100 µM [4] was 83.8% and the inhibition at 10 µM [5] was 6.3%. It also gave an inhibition at 100 µM [5] of 69.8%, an inhibition at 10 µM [6] of 10.1% and an inhibition at 100 µM [6] of 78.5%. For the same compound, the inhibition at 10 µM [7] was 22.5%, the inhibition at 100 µM [7] was 60.5% and the inhibition at 10 µM [8] was 88%. It also gave an inhibition at 100 µM [8] of 94.5%, an inhibition at 10 µM [9] of -7.2% and an inhibition at 100 µM [9] of 35.5%. The maximum tolerance dose [10] was “over 5000 mg/kg”.
